Measured values taken from PubChem BioAssay (NCI).
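Protocol summary: plate cells (96-well), add compound at 5 concentrations, incubate 48 h, interpolate endpoints linearly. TGI denotes the concentration required for complete inhibition of growth.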

Test system: NCI-H460 lung
Assay: inhibition of tumour cell growth, NCI panel, 48 h

CCOC(=O)NC(Nc1ccc([N+](=O)[O-])cc1)(C(F)(F)F)C(F)(F)F and O=C(O)c1ccc(OCc2nc3cc(C(F)(F)F)ccc3nc2-c2ccccc2)cc1 cannot be ordered by TGI: over 100 µM for the first, over 100 µM for the second.

CSc1ncnc2c1ncn2CCC#N and CC(C)=CCNc1ncnc2c1ncn2CCC#N cannot be ordered by TGI: over 100 µM for the first, over 100 µM for the second.

COc1cccc(/C=N/n2c(C)n[nH]c2=O)c1 and COc1ccc2c(cnc3c4cc(OC)c(OC)cc4ccc23)c1 cannot be ordered by TGI: over 100 µM for the first, over 100 µM for the second.

CC1CCCC(CC(=O)O)(CC(=O)O)C1 (stereo not given) and CC(=O)OCC1OC(n2c3c(cc(C#N)c2=S)CCCCC3)C(OC(C)=O)C(OC(C)=O)C1OC(C)=O (stereo not given) cannot be ordered by TGI: over 100 µM for the first, over 100 µM for the second.

Going from CC(C)NC(=O)OCCN=c1c2ccccc2ccc2ccccc12 to On1c(-c2ccccc2)nc2ccccc2c1=S, the TGI falls from over 100 µM to 61.8 µM.

O=c1oc2ccc([N+](=O)[O-])cc2c(Nc2ccc3c(c2)Oc2ccccc2O3)c1[N+](=O)[O-] and O=C1C(=Cc2ccccc2O)N=C(c2ccccc2)N1n1c(-c2ccccc2)nc2ccccc2c1=O cannot be ordered by TGI: over 100 µM for the first, over 100 µM for the second.

Cn1c2ccccc2c(=O)c2cccc(C(=O)NC(CCCN=C(N)N)C(=O)O)c21 (stereo not given) and O=C(O)/C=c1/c2ccccc2n2nc3ccccc3c12 cannot be ordered by TGI: over 100 µM for the first, over 100 µM for the second.

C=C1CN2CC(=C)CN(C1)CS(=O)(=O)N1CC(=C)CN(CC(=C)C1)S(=O)(=O)N1CC(=C)CN(CC(=C)C1)S(=O)(=O)C2 and Nc1ccc(S2(c3ccc(N)cc3)C=C(c3ccccc3)C(c3ccccc3)=C2)cc1 cannot be ordered by TGI: over 100 µM for the first, over 100 µM for the second.

Test system: HCC-2998 colon
Assay: inhibition of tumour cell growth, NCI panel, 48 h

COc1ccc(C2OC(c3ccncc3)=NN2C)cc1OC (stereo not given) and COc1ccc2c(cnc3c4cc(OC)c(OC)cc4ccc23)c1 cannot be ordered by TGI: over 100 µM for the first, over 100 µM for the second.

Compared with COC1C=COC2(C)Oc3c(C)c(O)c4c(O)c(c(C5SCCS5)c(O)c4c3C2=O)NC(=O)C(C)=C/C=C\C(C)C2OC(C)(C)OC(C2C)C(C)C(OC(C)=O)C1C (stereo not given), CC(=O)OCC1OC(n2c3c(cc(C#N)c2=S)CCCCC3)C(OC(C)=O)C(OC(C)=O)C1OC(C)=O (stereo not given) is higher in TGI: 20.2 µM for the first, over 100 µM for the second.

First: CC(C)(C)C(=O)CC1=Nc2ccccc2SC1(O)CC(=O)C(C)(C)C (stereo not given)
Second: Cn1c2ccccc2c(=O)c2cccc(C(=O)NC(CCCN=C(N)N)C(=O)O)c21 (stereo not given)
The TGI of the first is lower: 40.5 µM for the first, over 100 µM for the second.

Going from N#CC1=C(N)N(c2ccccc2)C(c2ccccc2)C1(C#N)C#N (stereo not given) to On1c(-c2ccccc2)nc2ccccc2c1=S, the TGI rises from 30.2 µM to over 100 µM.

CCOC(=O)NC(Nc1ccc([N+](=O)[O-])cc1)(C(F)(F)F)C(F)(F)F and CCC(=O)ONC(=O)Cn1ccc([N+](=O)[O-])n1 cannot be ordered by TGI: over 100 µM for the first, over 100 µM for the second.

COc1cccc(/C=N/n2c(C)n[nH]c2=O)c1 and COc1ccc(/C=C2\N=C(SC)NC2=O)cc1 cannot be ordered by TGI: over 100 µM for the first, over 100 µM for the second.

CC1CCCC(CC(=O)O)(CC(=O)O)C1 (stereo not given) and CC(C)NC(=O)OCCN=c1c2ccccc2ccc2ccccc12 cannot be ordered by TGI: over 100 µM for the first, over 100 µM for the second.

Compared with O=C(O)c1ccc(OCc2nc3cc(C(F)(F)F)ccc3nc2-c2ccccc2)cc1, O=C1C(=Cc2ccccc2O)N=C(c2ccccc2)N1n1c(-c2ccccc2)nc2ccccc2c1=O is lower in TGI: over 100 µM for the first, 89.2 µM for the second.

O=c1oc2ccc([N+](=O)[O-])cc2c(Nc2ccc3c(c2)Oc2ccccc2O3)c1[N+](=O)[O-] and O=C(O)/C=c1/c2ccccc2n2nc3ccccc3c12 are within 1.5-fold of each other in TGI: 66.4 µM for the first, 84.9 µM for the second.

Going from C=C1CN2CC(=C)CN(C1)CS(=O)(=O)N1CC(=C)CN(CC(=C)C1)S(=O)(=O)N1CC(=C)CN(CC(=C)C1)S(=O)(=O)C2 to CC(C)=CCNc1ncnc2c1ncn2CCC#N, the TGI rises from 37.5 µM to over 100 µM.

Work on Nc1ccc(S2(c3ccc(N)cc3)C=C(c3ccccc3)C(c3ccccc3)=C2)cc1 yielded a TGI of over 100 µM.

Test system: HOP-62 NSCLC
Assay: inhibition of tumour cell growth, NCI panel, 48 h

Going from C=C1C(=O)C=C[C@]2(C)CC[C@H]3C(=C)C(=O)O[C@@H]3[C@@H]12 to COc1cccc(/C=N/n2c(C)n[nH]c2=O)c1, the TGI rises from 6.36 µM to over 100 µM.

COc1ccc(C2OC(c3ccncc3)=NN2C)cc1OC (stereo not given) and COc1ccc2c(cnc3c4cc(OC)c(OC)cc4ccc23)c1 cannot be ordered by TGI: over 100 µM for the first, over 100 µM for the second.

First: COC1C=COC2(C)Oc3c(C)c(O)c4c(O)c(c(C5SCCS5)c(O)c4c3C2=O)NC(=O)C(C)=C/C=C\C(C)C2OC(C)(C)OC(C2C)C(C)C(OC(C)=O)C1C (stereo not given)
Second: CC(=O)OCC1OC(n2c3c(cc(C#N)c2=S)CCCCC3)C(OC(C)=O)C(OC(C)=O)C1OC(C)=O (stereo not given)
The TGI of the first is lower: 74.4 µM for the first, over 100 µM for the second.

First: CC(C)(C)C(=O)CC1=Nc2ccccc2SC1(O)CC(=O)C(C)(C)C (stereo not given)
Second: Cn1c2ccccc2c(=O)c2cccc(C(=O)NC(CCCN=C(N)N)C(=O)O)c21 (stereo not given)
The TGI of the first is lower: 76.2 µM for the first, over 100 µM for the second.

Compared with N#CC1=C(N)N(c2ccccc2)C(c2ccccc2)C1(C#N)C#N (stereo not given), On1c(-c2ccccc2)nc2ccccc2c1=S is higher in TGI: 36.8 µM for the first, over 100 µM for the second.

CCOC(=O)NC(Nc1ccc([N+](=O)[O-])cc1)(C(F)(F)F)C(F)(F)F and CCC(=O)ONC(=O)Cn1ccc([N+](=O)[O-])n1 cannot be ordered by TGI: over 100 µM for the first, over 100 µM for the second.

CSc1ncnc2c1ncn2CCC#N and CC(C)=CCNc1ncnc2c1ncn2CCC#N cannot be ordered by TGI: over 100 µM for the first, over 100 µM for the second.

Compared with O=C(O)c1ccc(OCc2nc3cc(C(F)(F)F)ccc3nc2-c2ccccc2)cc1, O=C1C(=Cc2ccccc2O)N=C(c2ccccc2)N1n1c(-c2ccccc2)nc2ccccc2c1=O is lower in TGI: over 100 µM for the first, 96.8 µM for the second.

COc1ccc(/C=C2\N=C(SC)NC2=O)cc1 and O=C(O)/C=c1/c2ccccc2n2nc3ccccc3c12 cannot be ordered by TGI: over 100 µM for the first, over 100 µM for the second.

CC(C)NC(=O)OCCN=c1c2ccccc2ccc2ccccc12 and Nc1ccc(S2(c3ccc(N)cc3)C=C(c3ccccc3)C(c3ccccc3)=C2)cc1 cannot be ordered by TGI: over 100 µM for the first, over 100 µM for the second.

First: O=c1oc2ccc([N+](=O)[O-])cc2c(Nc2ccc3c(c2)Oc2ccccc2O3)c1[N+](=O)[O-]
Second: C=C1CN2CC(=C)CN(C1)CS(=O)(=O)N1CC(=C)CN(CC(=C)C1)S(=O)(=O)N1CC(=C)CN(CC(=C)C1)S(=O)(=O)C2
The TGI of the first is higher: over 100 µM for the first, 53.7 µM for the second.

Test system: OVCAR-4 ovarian
Assay: inhibition of tumour cell growth, NCI panel, 48 h

Going from C=C1C(=O)C=C[C@]2(C)CC[C@H]3C(=C)C(=O)O[C@@H]3[C@@H]12 to COc1cccc(/C=N/n2c(C)n[nH]c2=O)c1, the TGI rises from 5.78 µM to over 100 µM.

COc1ccc(C2OC(c3ccncc3)=NN2C)cc1OC (stereo not given) and COc1ccc2c(cnc3c4cc(OC)c(OC)cc4ccc23)c1 cannot be ordered by TGI: over 100 µM for the first, over 100 µM for the second.

First: COC1C=COC2(C)Oc3c(C)c(O)c4c(O)c(c(C5SCCS5)c(O)c4c3C2=O)NC(=O)C(C)=C/C=C\C(C)C2OC(C)(C)OC(C2C)C(C)C(OC(C)=O)C1C (stereo not given)
Second: CC(=O)OCC1OC(n2c3c(cc(C#N)c2=S)CCCCC3)C(OC(C)=O)C(OC(C)=O)C1OC(C)=O (stereo not given)
The TGI of the first is lower: 54.7 µM for the first, over 100 µM for the second.

Going from N#CC1=C(N)N(c2ccccc2)C(c2ccccc2)C1(C#N)C#N (stereo not given) to On1c(-c2ccccc2)nc2ccccc2c1=S, the TGI rises from 51.1 µM to over 100 µM.

CSc1ncnc2c1ncn2CCC#N and CC(C)=CCNc1ncnc2c1ncn2CCC#N cannot be ordered by TGI: over 100 µM for the first, over 100 µM for the second.

CC1CCCC(CC(=O)O)(CC(=O)O)C1 (stereo not given) and Cn1c2ccccc2c(=O)c2cccc(C(=O)NC(CCCN=C(N)N)C(=O)O)c21 (stereo not given) cannot be ordered by TGI: over 100 µM for the first, over 100 µM for the second.

Going from COc1ccc(/C=C2\N=C(SC)NC2=O)cc1 to O=C(O)/C=c1/c2ccccc2n2nc3ccccc3c12, the TGI falls from over 100 µM to 70.1 µM.

CC(C)NC(=O)OCCN=c1c2ccccc2ccc2ccccc12 and Nc1ccc(S2(c3ccc(N)cc3)C=C(c3ccccc3)C(c3ccccc3)=C2)cc1 cannot be ordered by TGI: over 100 µM for the first, over 25.2 µM for the second.

O=c1oc2ccc([N+](=O)[O-])cc2c(Nc2ccc3c(c2)Oc2ccccc2O3)c1[N+](=O)[O-] and C=C1CN2CC(=C)CN(C1)CS(=O)(=O)N1CC(=C)CN(CC(=C)C1)S(=O)(=O)N1CC(=C)CN(CC(=C)C1)S(=O)(=O)C2 cannot be ordered by TGI: over 100 µM for the first, over 100 µM for the second.

Test system: EKVX NSCLC
Assay: inhibition of tumour cell growth, NCI panel, 48 h

Going from C=C1C(=O)C=C[C@]2(C)CC[C@H]3C(=C)C(=O)O[C@@H]3[C@@H]12 to COc1cccc(/C=N/n2c(C)n[nH]c2=O)c1, the TGI rises from 8.7 µM to over 100 µM.

COc1ccc(C2OC(c3ccncc3)=NN2C)cc1OC (stereo not given) and COc1ccc(/C=C2\N=C(SC)NC2=O)cc1 cannot be ordered by TGI: over 100 µM for the first, over 100 µM for the second.

First: CC(C)(C)C(=O)CC1=Nc2ccccc2SC1(O)CC(=O)C(C)(C)C (stereo not given)
Second: CC(C)NC(=O)OCCN=c1c2ccccc2ccc2ccccc12
The TGI of the first is lower: 59.6 µM for the first, over 100 µM for the second.

Going from N#CC1=C(N)N(c2ccccc2)C(c2ccccc2)C1(C#N)C#N (stereo not given) to O=C(O)c1ccc(OCc2nc3cc(C(F)(F)F)ccc3nc2-c2ccccc2)cc1, the TGI rises from 43.8 µM to over 100 µM.

CCOC(=O)NC(Nc1ccc([N+](=O)[O-])cc1)(C(F)(F)F)C(F)(F)F and CCC(=O)ONC(=O)Cn1ccc([N+](=O)[O-])n1 cannot be ordered by TGI: over 100 µM for the first, over 100 µM for the second.

CSc1ncnc2c1ncn2CCC#N and O=c1oc2ccc([N+](=O)[O-])cc2c(Nc2ccc3c(c2)Oc2ccccc2O3)c1[N+](=O)[O-] cannot be ordered by TGI: over 100 µM for the first, over 100 µM for the second.

CC1CCCC(CC(=O)O)(CC(=O)O)C1 (stereo not given) gave a TGI of over 100 µM.
